According to US20080206792A1, “Method of identifying compounds useful to treat neuronal degenerative diseases” (University of Iowa Research Foundation, priority 2005, published 2008):
Like-named read-outs stand apart in the source and are kept apart here. Blank lines part the entries; values can stand above or below the molecule they belong to.

What was measured:
[1] = molecular target: T1, NADPH oxidase (Homo sapiens, UniProt P04839); experiment: Lucigenin assay of NADPH-dependent superoxide production in vesicular fractions of IL-1β-stimulated MCF-7 cells
Protocol: Cytokine treatments and vesicular isolation. MCF-7 cells were treated with recombinant IL-1β at the indicated concentration for 20 minutes prior to all vesicular isolations. For endosomal loading experiments, purified bovine Cu/ZnSOD (Oxis Research) and/or catalase (Sigma-Aldrich) proteins were added to fresh media (0.1 to 1 mg protein/ml) and applied to cells 10 minutes prior to cytokine treatment in the continued presence of SOD and/or catalase. Cells were washed and scraped into ice-cold PBS. Cell pellets were then resuspended in 0.5 ml of homogenization buffer (0.25 M sucrose, 10 mM triethanolamine, 1 mM EDTA, 1 mM PMSF, and 100 ug/ml aprotinin), homogenized in a Duall tissue grinder (Duall), and centrifuged at 2000×g at 4° C. for 10 minutes. The supernatant was designated the post-nuclear supernatant (PNS). […] The PNS was then bottom loaded under two-step gradients of 24% and 20% Iodixanol in homogenization buffer. Samples were centrifuged at 30,500 rpm for 2 hours at 4° C. Fractions were collected from the top to the bottom of the centrifuge tube at 4° C. (about 300 μl per fraction) and utilized immediately for NADPH oxidase activity and immuno-isolation, or frozen for Western blot analysis.
NFκB and NADPH oxidase activity assays. […] NADPH oxidase activities were analyzed by measuring the rate of ? generation using a chemiluminescent, lucigenin-based system (Li et al., 2001). Prior to the initiation of the assay, 5 μg of vesicular proteins were combined with 5 μM lucigenin (Sigma-Aldrich) in PBS and incubated in darkness at room temperature for 10 minutes. The reaction was initiated by the addition of 100 μM of NADPH (Sigma-Aldrich) and changes in luminescence were measured over the course of 3 minutes (5 readings/second). The slope of the luminescence curve (relative light units [RLU] per minute) (r>0.95) was used to calculate the rate of ? formation as an index of NADPH oxidase activity (RLU/min μg protein).

[2] = test system: NADPH oxidase; experiment: Nox activity (lucigenin, DHE) in lumbar spinal cord of end-stage G93A-SOD1 mice after 5 days of apocynin; format: in vivo, mouse; details: terminal stage ALS mice, apocynin 300 mg/kg in water for five days
From the text: (§1) FIG. 17. […] A) Survival curve for mice treated with different doses of apocynin in their water beginning at 14 days of age. Number of mice (N) for each treatment group is shown along with median survival times in days. B) Survival data of male and female mice for each given dose of apocynin. Mice treated for eye infections with antibiotics are marked as boxes. Those mice that were unsuccessfully treated and died from eye infections are denoted by an X within the box. Circles denote animals that never contracted eye infection. The number of mice in each group (N) is given above the mean survival in days for each dose of apocynin. C) Relationship between age of disease onset (as determined by a 5% weight loss during a one week period) and apocynin dosage. D) Survival Index was measured as the time from disease onset until the animal reached clinical death for each of the given doses of apocynin. E) NADPH-dependent superoxide production (Nox activity) was measured in total membranes of lumbar spinal cord from end-stage G93A-SOD1 transgenic mice (about 120 days of age) either untreated or treated with apocynin (300 mg/kg) for 5 days prior to analysis (N=5 in each group). F) Dihydroethidium fluorescence in lumbar spinal cord of the same mice shown in (E).

[3] = test system: SH-SY (neuronal) cells; experiment: NADPH-dependent superoxide production and cell death in neuronal cells infected with adenovirus expressing mutant SOD1; format: cell-based; details: apocynin 100 μM for 72 hours
From the text: (§2) FIG. 15. […] A) NADPH-dependent superoxide production in total endomembranes from brain, spinal cord, and liver of non-transgenic or transgenic mice overexpressing WT-SOD1 or G93A-SOD1 (N=3 animals in each group). B) Dihydroethidium (DHE) fluorescent detection of superoxide in lumbar spinal cord sections from 120 day old non-transgenic or transgenic mice overexpressing WT-SOD1 or G93A-SOD1. DAP1 staining demarcates nuclei in lower panels. C, D) Measure of superoxide production (C) or trypan-blue exclusion as a measure of cell death (D) in SH-SY (neuronal) or MO59J (glial) cells infected with adenoviral vectors expressing LacZ, WT-SOD1, or the indicated mutant SOD1. E) Superoxide production and percentage of cell death in SH-SY or MO59J cells following infection with the indicated adenoviral vectors followed by treatment with or without apocynin (100 μM) for 72 hours. F) Rac-GTP activation as determined by association with GST-Pak1 using spinal cord cell lysates from non-transgenic (control) or G93A-SOD1 transgenic mice at 120 days of age. Controls include lysate from control mice incubated with GTPγS (+) or GDPβS (−) prior to performing Pak1 pull-down assays. […]

[4] = test system: MO59J (glial) cells; experiment: NADPH-dependent superoxide production and cell death in glial cells infected with adenovirus expressing mutant SOD1; format: cell-based; details: apocynin 100 μM for 72 hours
From the text: as §2

[5] = test system: SOD1-G93A mice; experiment: Survival and disease progression of G93A-SOD1 transgenic (ALS) mice given apocynin in drinking water; format: in vivo, mouse
From the text: FIG. 14. […] D) Survival Index is the time between disease onset and clinical death and is a marker of disease progression.
as §1
However, it is currently unclear if other Rac-regulated Nox complexes (such as Nox1 and Nox3) might also contribute to altered ROS production in ALS. To test the therapeutic potential of direct Nox inhibition on the pathoprogression of ALS disease, apocynin in vivo inhibition studies were performed in G93A-ALS mice.

[6] = format: in vivo; details: non-ALS mice treated with apocynin
[7] = molecular target: T1, NADPH oxidase; experiment: ESR (DMPO adduct) of NADPH-dependent superoxide by IL-1β-activated endosomes; format: biochemical; design: enhanced recruitment of endogenous Nox2 to endosomes only following IL-1β stimulation; endogenous in cells; host or cells: MCF-7 cells, IL-1β-stimulated, iodixanol vesicular fractions; details: endosomal loading prior to vesicular isolation
[8] = test system: MCF-7 cells; experiment: H2HFF-BSA endosomal fluorescence after IL-1β in MCF-7 cells; format: cell-based, human
Protocol: In vivo localization of redox-active endosomes and ROS production. In vivo localization of superoxides within endosomes was performed using OxyBURST Green H2HFF-BSA (Molecular Probes). Stock solutions (1 mg/ml) were generated immediately prior to use by dissolving H2HFF-BSA in PBS under nitrogen and protected from light. Cells were incubated in the presence of 50 μg/ml OxyBurst Green H2HFF-BSA for 2 minutes at 37° C. and then stimulated by the addition of IL-1β (1 ng/ml). Cells were fixed in 4% paraformaldehyde at various times (1-10 minutes) post-stimulation and evaluated by fluorescent microscopy. Various compounds (1 mg/ml SOD or 10 μM DPI) were added at the time of IL-1β stimulation. Co-localization of H2HFF-BSA and EEA1 was performed by immunofluorescent localization in post-fixed samples using an anti-EEA1 monoclonal antibody (Transduction Laboratories) and a Texas Red-Conjugated Goat Anti-Mouse Antibody (Jackson ImmunoResearch Laboratories). In vivo localization of total cellular ROS (predominantly H2O2) was performed using H2DCFDA (Molecular Probes). […]
IL-1β induces Nox2 complex activation in early endosomes. […] By incubating cells in the presence of H2HFF-BSA, the endosomal compartment was loaded with this dye and ? detected by a green fluorescence signal. […] These findings confirmed that Nox-derived ? were the major ROS detected by H2HFF-BSA in the endosomal compartment. […]

[9] = molecular target: T2, Rac1/SOD1 binding (Homo sapiens, UniProt P63000); experiment: In vitro pull-down of His-Rac1-GTPγS with SOD1
T2 construct: purchased Cytoskeleton Inc. (His-Rac1); Oxis Research (bovine SOD1)
Protocol: Pull-down assays with GST- and His-tagged proteins. […] The GTPases were either used directly or preloaded with either GTPγS or GDPβS and then washed. […] Samples were incubated at room temperature (RT) for 30 minutes with intermittent gentle agitation. […] The fourth wash was carried out in 50 mM Tris pH 6.8. Proteins were eluted using 20 μl 125 mM imidazole and samples were then mixed with SDS-PAGE reducing loading buffer and separated by SDS-PAGE for Western blotting.

[10] = test system: Nox; format: biochemical, mouse
Protocol: Lucigenin chemiluminescence (LCL) assay for NADPH-dependent superoxide (.O2) production. NADPH oxidase activities were analyzed by measuring the rate of ? generation using a chemiluminescent, lucigenin-based system (Li et al., 1998). 5 μM lucigenin in 50 μl of each subcellular fractions was incubated in the dark at room temperature for 15 minutes. LCL was measured using a single-tube Luminometer TD20-20 (Turner Designs Sunnyvale, Calif.). The reaction was initiated by the addition β-NADPH to a final concentration of 100 μM with or without DPI and/or SOD as indicated. LCL was measured over the course of 5 minutes. The initial slope of the luminescence curve (RLU/minute) was used to calculate the rate of luminescence product formation and compared between samples as an index of NADPH oxidase activity.

[11] = molecular target: Nox2 (Mus musculus, UniProt Q61093); details: PMDF endosomes with purified bovine SOD1
From the text: Subcellular Fractionation.
Lucigenin chemiluminescence (LCL) assay for NADPH-dependent superoxide (.O2) production.

Molecule: C=C(C)[C@H]1Cc2c(ccc3c2O[C@@H]2COc4cc(OC)c(OC)cc4[C@@H]2C3=O)O1 [rotenone]
NADPH-dependent superoxide production in peak vesicular fractions ([1]; IL-1β-stimulated MCF-7 cells): not

Molecule: COc1cc(C(C)=O)ccc1O [apocynin, 4-Hydroxy-3-methoxyacetophenone]
Nox-derived superoxide production in vivo (spinal cord, lucigenin and DHE assays) [2]: effectively inhibited | Nox activity [3]: could not inhibit | Protection from mutant SOD1-mediated cellular injury [3]: nor did it protect | Cell viability [4]: increase in cell viability | SOD1 mutant facilitated NADPH-dependent superoxide production [4]: abrogated | Number of motor neurons in the lumbar spinal cord ([5]; 300 mg/kg, at 120 days): significantly increased | Probability of survival ([5]; SOD1-G93A mice, apocynin 30 mg/Kg, nontreated 125 days, p<0.0001): 185 days | Gait analysis ([5]; apocynin 30 mg/Kg, at 114 days of age, untreated mice impaired gait): normal gait | Survival Index (time between disease onset and clinical death) ([5]; apocynin 30 mg/Kg, n=6, untreated 11 days): 32 days | Survival of G93A-SOD1 mice, dose dependence ([5]; apocynin in drinking water from 2 weeks of age): prolonged survival of G93A-SOD1 mice in a dose-dependent fashion | Average age of disease onset ([5]; first observation of hind limb weakness, apocynin 30 mg/Kg, n=6, untreated 117.5 days): 156.5 days | 50% survival time ([5]; highest dose 300 mg/kg in drinking water from 2 weeks of age, increased from 125 days): 239 days | Life expectancy and disease onset ([5]; lowest tested dose): prolong life expectancy and delay disease onset | Age of onset of disease and survival index versus dose ([5]; onset judged by 5% weight loss and gait): clear dose response | Eye disease [6]: did not develop eye disease

Molecule: antimycin A
NADPH-dependent superoxide production in peak vesicular fractions ([1]; IL-1β-stimulated MCF-7 cells): not

Molecule: c1ccc2c(c1)[I+]c1ccccc1-2 [DPI, diphenyleneiodonium chloride]
NADPH-dependent superoxide production [10]: inhibited | NADPH-dependent superoxide production in peak vesicular fractions [1]: sensitive | IL-1β-induced H2HFF-BSA fluorescence ([8]; 10 μM DPI added at IL-1β stimulation): significantly inhibited | SOD1-mediated enhancement in endosomal NADPH-dependent superoxide [11]: sensitive

Second part, led by results:

DMPO adduct formation (ESR) [7]: completely inhibited
Molecule: Cu/ZnSOD: purified bovine Cu/ZnSOD (Oxis Research) added to media for endosomal loading
IL-1β-induced H2HFF-BSA fluorescence ([8]; purified Cu/ZnSOD protein loaded into endosomal compartment, 1 mg/ml): significantly inhibited

DTT concentration reversing H2O2-mediated inhibition of Rac1/SOD1 binding ([9]; Rac1 oxidized with 300 pM H2O2): 50 to 300 µM
Molecule: O[C@H](CS)[C@H](O)CS (racemic) [DTT, dithiothreitol]

DMPO adduct formation (ESR) [7]: not
Molecule: catalase

Lowest H2O2 concentration causing a significant decrease in the binding affinity of Rac1 for SOD1 ([9]; Rac1 reduced with DTT, preloaded with GTPγS): 50 pM
Molecule: OO [H2O2, hydrogen peroxide]
